The values below come from ChEMBL document CHEMBL4007392, “Modulating Mineralocorticoid Receptor with Non-steroidal Antagonists. New Opportunities for the Development of Potent and Selective Ligands without Off-Target Side Effects” (J Med Chem, 2017).

A value given as a limit tells only on which side of the number the result lay.

Broadly, the IC50 is the midpoint of a concentration-inhibition curve.

The target in the first test is T1, Mineralocorticoid receptor (Rattus norvegicus, UniProt P22199).
T1 sequence (P22199 whole entry): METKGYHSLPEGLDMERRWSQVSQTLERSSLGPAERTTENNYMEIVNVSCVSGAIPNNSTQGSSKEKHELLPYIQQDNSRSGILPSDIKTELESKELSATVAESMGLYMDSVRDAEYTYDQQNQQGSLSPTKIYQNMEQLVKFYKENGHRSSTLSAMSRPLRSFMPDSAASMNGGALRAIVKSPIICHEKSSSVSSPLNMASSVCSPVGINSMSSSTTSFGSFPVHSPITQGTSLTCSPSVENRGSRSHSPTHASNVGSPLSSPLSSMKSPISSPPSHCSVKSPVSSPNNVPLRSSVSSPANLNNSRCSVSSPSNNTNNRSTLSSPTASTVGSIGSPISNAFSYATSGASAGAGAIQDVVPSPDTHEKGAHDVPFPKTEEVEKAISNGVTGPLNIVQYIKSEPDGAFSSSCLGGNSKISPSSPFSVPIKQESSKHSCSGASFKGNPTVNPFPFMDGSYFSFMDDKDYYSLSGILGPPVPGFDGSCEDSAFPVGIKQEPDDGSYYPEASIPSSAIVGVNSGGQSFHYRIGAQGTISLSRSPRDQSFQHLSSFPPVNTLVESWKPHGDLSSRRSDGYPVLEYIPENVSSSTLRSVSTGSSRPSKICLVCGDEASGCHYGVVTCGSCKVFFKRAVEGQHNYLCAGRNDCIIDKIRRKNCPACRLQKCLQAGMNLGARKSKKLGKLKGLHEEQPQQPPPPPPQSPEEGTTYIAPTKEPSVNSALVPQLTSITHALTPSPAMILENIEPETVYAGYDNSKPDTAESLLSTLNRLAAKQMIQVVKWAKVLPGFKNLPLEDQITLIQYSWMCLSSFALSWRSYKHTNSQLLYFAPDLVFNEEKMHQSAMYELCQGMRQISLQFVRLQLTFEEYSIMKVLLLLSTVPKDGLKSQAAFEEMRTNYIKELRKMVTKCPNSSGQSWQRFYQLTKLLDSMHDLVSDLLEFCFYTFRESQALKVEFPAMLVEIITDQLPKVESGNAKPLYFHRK
The test can be described thus: Displacement of [3H]-Aldosterone from MR in Sprague-Dawley rat kidney cytosolic fraction measured after overnight incubation by liquid scintillation counting method. (In general: Displacement assays read how much labelled ligand stays bound in the presence of the test substance.)
Take `CC1(C)N=C(c2ccc(Cl)cc2)c2ccc(NS(C)(=O)=O)cc2O1`: the IC50 is below 500 nM.
Regarding `CC1=C(c2ccc(F)cc2)c2ccc(NS(C)(=O)=O)cc2OC1(C)C`, the IC50 is below 500 nM.
Take `Cc1cc(NS(C)(=O)=O)cc2c1C(c1ccc(F)cc1)=NC(C)(C)O2`: the IC50 is below 500 nM.
In the case of `Cc1cc(Cl)ccc1C1=CC(C)(C)Oc2cc(NS(C)(=O)=O)ccc21`, the IC50 is below 500 nM.

The target in the next test is Mineralocorticoid receptor (Homo sapiens, UniProt P08235, C808S). The test can be described thus: Binding affinity to N-terminal 6His-GST-tagged human MR LBD (727 to 984 residues) harboring C808S mutation expressed in Escherichia coli BL21DE3/corticosterone complex by AlphaScreen assay.
Sequence of Mineralocorticoid receptor (Homo sapiens, UniProt P08235, C808S) (P08235 whole entry C808S, the tested form may be a part): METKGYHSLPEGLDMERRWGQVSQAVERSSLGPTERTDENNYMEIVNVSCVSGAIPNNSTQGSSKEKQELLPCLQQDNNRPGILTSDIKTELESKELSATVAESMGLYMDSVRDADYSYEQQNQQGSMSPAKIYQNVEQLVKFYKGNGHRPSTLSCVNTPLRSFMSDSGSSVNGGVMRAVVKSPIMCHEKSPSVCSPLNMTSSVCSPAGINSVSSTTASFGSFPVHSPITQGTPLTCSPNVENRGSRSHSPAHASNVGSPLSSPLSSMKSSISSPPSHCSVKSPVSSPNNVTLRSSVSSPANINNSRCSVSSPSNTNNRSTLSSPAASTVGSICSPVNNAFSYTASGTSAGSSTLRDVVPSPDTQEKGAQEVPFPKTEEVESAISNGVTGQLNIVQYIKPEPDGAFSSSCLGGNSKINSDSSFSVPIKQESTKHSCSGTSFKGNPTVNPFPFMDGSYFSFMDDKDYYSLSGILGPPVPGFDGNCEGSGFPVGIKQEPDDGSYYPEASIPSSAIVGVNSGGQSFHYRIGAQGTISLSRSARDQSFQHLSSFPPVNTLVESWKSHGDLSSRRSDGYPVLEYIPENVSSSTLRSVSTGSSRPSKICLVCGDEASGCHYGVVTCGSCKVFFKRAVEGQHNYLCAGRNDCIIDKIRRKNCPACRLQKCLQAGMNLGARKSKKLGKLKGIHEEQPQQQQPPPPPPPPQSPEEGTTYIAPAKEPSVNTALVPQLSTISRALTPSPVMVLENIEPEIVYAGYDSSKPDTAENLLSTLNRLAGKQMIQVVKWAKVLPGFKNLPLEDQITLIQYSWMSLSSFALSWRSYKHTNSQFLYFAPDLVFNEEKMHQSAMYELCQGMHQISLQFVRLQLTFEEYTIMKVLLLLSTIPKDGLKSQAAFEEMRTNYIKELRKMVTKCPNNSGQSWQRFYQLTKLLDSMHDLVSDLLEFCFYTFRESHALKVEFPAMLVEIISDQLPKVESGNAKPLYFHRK
In the case of `CC(C)C[C@H](NC(=O)[C@H](CO)NC(=O)[C@H](CCCCN)NC(=O)[C@H](CCC(N)=O)NC(=O)[C@H](CCC(N)=O)NC(=O)[C@H](C)N)C(=O)N[C@@H](CC(C)C)C(=O)N[C@@H](CCC(N)=O)C(=O)N[C@@H](CCC(N)=O)C(=O)N[C@@H](CC(C)C)C(=O)N[C@@H](CC(C)C)C(=O)N[C@H](C(=O)N[C@@H](CCC(=O)O)C(=O)O)[C@@H](C)O`, the IC50 came to 900 nM.
As for H-QEKHRILHKLLQNGN-OH, the IC50 came out at 4600 nM.
In the case of H-KENNALLRYLLDRDD-OH, the IC50 was 1400 nM. Compared with the last molecule, the IC50 is about 3.3-fold lower.
`CC(C)C[C@H](NC(=O)[C@H](CC(C)C)NC(=O)[C@H](CCC(=O)O)NC(=O)[C@H](CO)NC(=O)[C@H](CS)NC(=O)[C@@H]1CCCN1C(=O)[C@H](CCCNC(=N)N)NC(=O)[C@@H](N)CCCNC(=N)N)C(=O)N[C@@H](CCCCN)C(=O)N[C@@H](Cc1ccc(O)cc1)C(=O)N[C@@H](CC(C)C)C(=O)N[C@H](C(=O)N[C@H](C(=O)N[C@@H](CC(N)=O)C(=O)N[C@@H](CC(=O)O)C(=O)O)[C@H](C)O)[C@H](C)O` yielded an IC50 of 1100 nM.
